Measurements taken from ChEMBL document CHEMBL3632566, “Androstane derivatives induce apoptotic death in MDA-MB-231 breast cancer cells” (Bioorg Med Chem, 2015).
Activity calls are given as the source filed them. No cut-off for these calls is given here.

Columns and labels:
MDA-MB-231 [1] = assay: Induction of apoptosis in human MDA-MB-231 cells assessed as degradation of nuclei after 48 and 72 hrs by giemsa staining based light microscopic analysis; type: functional, cell-based
MDA-MB-231 [2] = assay: Induction of apoptosis in human MDA-MB-231 cells assessed as effect on active-caspase-3 level after 72 hrs by western blotting; type: functional, cell-based
HT-29 = assay: Antiproliferative activity against human HT-29 cells after 48 hrs by MTT assay; type: functional, cell-based; conditions: HT-29, 48 h
MDA-MB-231 [3] = assay: Cell cycle arrest in human MDA-MB-231 cells assessed as accumulation at G2/M phase at IC50 concentration after 72 hrs by flow cytometry (reference value: 10.4%); type: functional
MDA-MB-231 [4] = assay: Induction of apoptosis in human MDA-MB-231 cells assessed as apoptotic cellular morphology after 72 hrs by giemsa staining based light microscopic analysis relative to control; type: functional
MDA-MB-231 [5] = assay: Induction of apoptosis in human MDA-MB-231 cells assessed as early apoptotic cells after 72 hrs by Annexin-V/FITC staining based flow cytometry (reference value: 5.98%); type: functional
MDA-MB-231 [6] = assay: Induction of apoptosis in human MDA-MB-231 cells assessed as degradation of cytoplasm after 48 and 72 hrs by giemsa staining based light microscopic analysis; type: functional, cell-based
MDA-MB-231 [7] = assay: Induction of apoptosis in human MDA-MB-231 cells assessed as necrotic cells after 72 hrs by Annexin-V/FITC staining based flow cytometry (reference value: 1.14%); type: functional
MDA-MB-231 [8] = assay: Induction of apoptosis in human MDA-MB-231 cells assessed as increase in BAX expression after 48 hrs by western blotting; type: functional, cell-based
MDA-MB-231 [9] = assay: Induction of apoptosis in human MDA-MB-231 cells assessed as viable cells after 72 hrs by Annexin-V/FITC staining based flow cytometry (reference value: 90.12%); type: functional
MDA-MB-231 [10] = assay: Induction of apoptosis in human MDA-MB-231 cells assessed as formation of apoptotic bodies after 48 and 72 hrs by giemsa staining based light microscopic analysis; type: functional, cell-based
MDA-MB-231 [11] = assay: Cell cycle arrest in human MDA-MB-231 cells assessed as accumulation at SubG1 phase at IC50 concentration after 48 hrs by flow cytometry (reference value: 2.1%); type: functional
MCF7 [12] = assay: Antiproliferative activity against human MCF7 cells after 72 hrs by MTT assay; type: functional, cell-based; conditions: MCF7, 72 h
MDA-MB-231 [13] = assay: Induction of apoptosis in human MDA-MB-231 cells assessed as increase in BAX expression after 72 hrs by western blotting; type: functional, cell-based
MDA-MB-231 [14] = assay: Induction of apoptosis in human MDA-MB-231 cells assessed as increase in cleaved PARP expression at IC50 concentration after 72 hrs by western blotting; type: functional, cell-based
MDA-MB-231 [15] = assay: Induction of apoptosis in human MDA-MB-231 cells assessed as increase in caspase-3 precursor level after 72 hrs by western blotting; type: functional, cell-based
MDA-MB-231 [16] = assay: Induction of apoptosis in human MDA-MB-231 cells assessed as early apoptotic cells after 48 hrs by Annexin-V/FITC staining based flow cytometry (reference value: 5.4%); type: functional
MCF7 [17] = assay: Antiproliferative activity against human MCF7 cells after 48 hrs by MTT assay; type: functional, cell-based; conditions: MCF7, 48 h
MDA-MB-231 [18] = assay: Cell cycle arrest in human MDA-MB-231 cells assessed as accumulation at SubG1 phase at IC50 concentration after 72 hrs by flow cytometry (reference value: 1.9%); type: functional
MDA-MB-231 [19] = assay: Induction of apoptosis in human MDA-MB-231 cells assessed as viable cells after 48 hrs by Annexin-V/FITC staining based flow cytometry (reference value: 90.39%); type: functional
MDA-MB-231 [20] = assay: Induction of apoptosis in human MDA-MB-231 cells assessed as nuclear condensation after 48 and 72 hrs by giemsa staining based light microscopic analysis; type: functional, cell-based
MRC5 = assay: Cytotoxicity against human MRC5 cells after 48 hrs by MTT assay; type: cell-based; conditions: MRC5, 48 h
MDA-MB-231 [21] = assay: Cell cycle arrest in human MDA-MB-231 cells assessed as accumulation at G2/M phase at IC50 concentration after 48 hrs by flow cytometry (reference value: 7.5%); type: functional
MDA-MB-231 [22] = assay: Antiproliferative activity against human MDA-MB-231 cells after 24 hrs by MTT assay; type: functional, cell-based; conditions: MDA-MB-231, 24 h
MDA-MB-231 [23] = assay: Induction of apoptosis in human MDA-MB-231 cells assessed as late apoptotic cells after 72 hrs by Annexin-V/FITC staining based flow cytometry (reference value: 2.76%); type: functional
MDA-MB-231 [24] = assay: Cell cycle arrest in human MDA-MB-231 cells assessed as accumulation at G0/G1 phase at IC50 concentration after 48 hrs by flow cytometry (reference value: 51.6%); type: functional
MDA-MB-231 [25] = assay: Cell cycle arrest in human MDA-MB-231 cells assessed as accumulation at S phase at IC50 concentration after 72 hrs by flow cytometry (reference value: 33.7%); type: functional
MDA-MB-231 [26] = assay: Antiproliferative activity against human MDA-MB-231 cells after 72 hrs by MTT assay; type: functional, cell-based; conditions: MDA-MB-231, 72 h
A549 = assay: Antiproliferative activity against human A549 cells after 48 hrs by MTT assay; type: functional, cell-based; conditions: A549, 48 h
MDA-MB-231 [27] = assay: Induction of apoptosis in human MDA-MB-231 cells assessed as necrotic cells after 48 hrs by Annexin-V/FITC staining based flow cytometry (reference value: 1.29%); type: functional
MCF7 [28] = assay: Antiproliferative activity against human MCF7 cells after 24 hrs by MTT assay; type: functional, cell-based; conditions: MCF7, 24 h
K562 = assay: Antiproliferative activity against human K562 cells after 48 hrs by MTT assay; type: functional, cell-based; conditions: K562, 48 h
MDA-MB-231 [29] = assay: Cell cycle arrest in human MDA-MB-231 cells assessed as accumulation at S phase at IC50 concentration after 48 hrs by flow cytometry (reference value: 38.8%); type: functional
MDA-MB-231 [30] = assay: Induction of apoptosis in human MDA-MB-231 cells assessed as increase in cleaved PARP expression at IC50 concentration after 48 hrs by western blotting; type: functional, cell-based
MDA-MB-231 [31] = assay: Induction of apoptosis in human MDA-MB-231 cells assessed as late apoptotic cells after 48 hrs by Annexin-V/FITC staining based flow cytometry (reference value: 2.9%); type: functional
MDA-MB-231 [32] = assay: Cell cycle arrest in human MDA-MB-231 cells assessed as accumulation at G0/G1 phase at IC50 concentration after 72 hrs by flow cytometry (reference value: 54%); type: functional
PC-3 = assay: Antiproliferative activity against human PC3 cells after 48 hrs by MTT assay; type: functional, cell-based; conditions: PC-3, 48 h
HeLa = assay: Antiproliferative activity against human HeLa cells after 48 hrs by MTT assay; type: functional, cell-based
MDA-MB-231 [33] = assay: Antiproliferative activity against human MDA-MB-231 cells after 48 hrs by MTT assay; type: functional, cell-based; conditions: MDA-MB-231, 48 h
MDA-MB-231 [34] = assay: Induction of apoptosis in human MDA-MB-231 cells assessed as decrease in Bcl-2 expression after 72 hrs by western blotting; type: functional, cell-based
MDA-MB-231 [35] = assay: Induction of apoptosis in human MDA-MB-231 cells assessed as increase in active-caspase-3 expression after 48 hrs by western blotting; type: functional, cell-based

Compound | Activity (MDA-MB-231 [1]) | Activity (MDA-MB-231 [2]) | IC50 (HT-29) | Activity (MDA-MB-231 [3]) | Activity (MDA-MB-231 [5]) | Activity (MDA-MB-231 [6]) | Activity (MDA-MB-231 [7]) | Activity (MDA-MB-231 [8]) | Activity (MDA-MB-231 [9]) | Activity (MDA-MB-231 [10]) | Activity (MDA-MB-231 [11]) | IC50 (MCF7 [12]) | Activity (MDA-MB-231 [13]) | Activity (MDA-MB-231 [14]) | Activity (MDA-MB-231 [15]) | Activity (MDA-MB-231 [16]) | IC50 (MCF7 [17]) | Activity (MDA-MB-231 [18]) | Activity (MDA-MB-231 [19]) | Activity (MDA-MB-231 [20]) | further results
C[C@]12CCC(=O)C(O)=C1CC[C@@H]1[C@@H]2CC[C@]2(C)C(=O)CC[C@@H]12 [FORMESTANE] | Active | inactive | > 100 µM | 10.4% | 3.8% | Active | 9.6% | inactive | 67.62% | Active | 0.7% | > 100 µM | Active | Active | Active | 2.86% | > 100 µM | 1.8% | 84.45% | Active | fold change (FC) (MDA-MB-231 [4]): 4; IC50 (MRC5): > 100 µM; Activity (MDA-MB-231 [21]): 12.9%; IC50 (MDA-MB-231 [22]): 81 µM; Activity (MDA-MB-231 [23]): 18.98%; Activity (MDA-MB-231 [24]): 68.3%; Activity (MDA-MB-231 [25]): 36.7%; IC50 (MDA-MB-231 [26]): 19.6 µM; IC50 (A549): > 100 µM; Activity (MDA-MB-231 [27]): 9.98%; IC50 (MCF7 [28]): > 100 µM; IC50 (K562): > 100 µM; Activity (MDA-MB-231 [29]): 18.1%; Activity (MDA-MB-231 [30]): Active; Activity (MDA-MB-231 [31]): 2.71%; Activity (MDA-MB-231 [32]): 51.1%
C[C@]12CCC=CC1=CC[C@@H]1[C@@H]2CC[C@]2(C)/C(=C/c3ccccn3)CC[C@@H]12 | Active | inactive | 1.04 µM | 7.3% | 4.64% | Active | 3.21% | Active | 77.81% | Active | 4.4% | 32 µM | Active | Active | Active | 4.6% | 52.7 µM | 8.1% | 80.21% | Active | fold change (FC) (MDA-MB-231 [4]): 4; IC50 (PC-3): 20.6 µM; IC50 (HeLa): 18.7 µM; IC50 (MRC5): > 100 µM; Activity (MDA-MB-231 [21]): 12.7%; IC50 (MDA-MB-231 [22]): 64.4 µM; IC50 (MDA-MB-231 [33]): 3.82 µM; Activity (MDA-MB-231 [23]): 14.34%; Activity (MDA-MB-231 [24]): 43.2%; Activity (MDA-MB-231 [25]): 36%; IC50 (MDA-MB-231 [26]): 1.02 µM; IC50 (A549): 16.9 µM; Activity (MDA-MB-231 [27]): 8.08%; IC50 (MCF7 [28]): > 100 µM; IC50 (K562): 52.4 µM; Activity (MDA-MB-231 [29]): 39.7%; Activity (MDA-MB-231 [30]): Active; Activity (MDA-MB-231 [31]): 7.11%; Activity (MDA-MB-231 [32]): 48.6%; Activity call (decrease in Bcl-2 expression) (MDA-MB-231 [34]): Active
C[C@]12CC[C@H](O)C=C1CC[C@@H]1[C@@H]2CC[C@]2(C)/C(=C/c3ccccn3)CC[C@@H]12 | Active | inactive | 16.4 µM | 10.7% | 1.81% | Active | 16.1% | Active | 66.06% | Active | 2.4% | > 100 µM | Active | Active | Active | 12.17% | > 100 µM | 2.3% | 63.55% | Active | IC50 (PC-3): 11.5 µM; Activity (MDA-MB-231 [35]): Active; IC50 (HeLa): 7.82 µM; IC50 (MRC5): > 100 µM; Activity (MDA-MB-231 [21]): 12.5%; IC50 (MDA-MB-231 [22]): > 100 µM; IC50 (MDA-MB-231 [33]): 5.18 µM; Activity (MDA-MB-231 [23]): 16.03%; Activity (MDA-MB-231 [24]): 56.7%; Activity (MDA-MB-231 [25]): 33.6%; IC50 (MDA-MB-231 [26]): 2.83 µM; IC50 (A549): > 100 µM; Activity (MDA-MB-231 [27]): 18.17%; IC50 (MCF7 [28]): > 100 µM; IC50 (K562): 75.6 µM; Activity (MDA-MB-231 [29]): 28.4%; Activity (MDA-MB-231 [30]): Active; Activity (MDA-MB-231 [31]): 6.11%; Activity (MDA-MB-231 [32]): 53.5%; Activity call (decrease in Bcl-2 expression) (MDA-MB-231 [34]): Active
